Assays:
[1] = target: mTOR (Homo sapiens, UniProt P42345); conditions: recent data (41, 47, 48); cited from earlier work
[2] = tested on: TFEB; experiment: TFEB nuclear translocation in starved / re-stimulated HeLa cells (nuclear/cytosolic fractionation, immunofluorescence); type: cell-based, human; conditions: for nuclear translocation of exogenously expressed TFEB: HeLa and HEK-293T cells transfected with TFEB-3xFLAG, treated overnight; for TFEB nuclear translocation compared to starved media alone: EBSS media supplemented with the factor
Description: Cells were seeded at 50% of confluence in 6 well dishes and serum starved overnight (ON). Normal medium was added the following day either in presence of DMSO or kinase inhibitors. Subcellular fractionation was carried out as previously reported.

[3] = tested on: primary hepatocytes; conditions: for upregulation / transcriptional response of TFEB target genes: hepatocytes from TFEB conditional knockout mice; for levels of P-ERK / mTOR as measured by the level of p-S6K: primary hepatocytes
Description: Liver was dissociated in a petri dish, cell pellet was washed in HBSS and plated at density of 5×10^5 cells/35 mm dish and cultured in William's medium E supplemented with 10% FBS, 2 mM glutamine, 0.1 mM Insulin, 0.1 mM Dexamethasone and pen/strep. The next day, cells were treated as described in the text.
Total RNA was extracted from tissues using TRIzol (Invitrogen) or from cells using RNAesy column (Qiagen). Reverse transcription was performed using TaqMan reverse transcription reagents (Applied Biosystems). Lysosomal and autophagic gene specific primers were previously reported^2. Autophagy gene primers and mouse primers were purchased from SABiosciences. Fold change calculations were calculated using SABiosciences' online data analysis website (http colon double forward slash www dot sabiosciences dot com forward slash per forward slash arrayanalysis dot php) which uses the DDCt method. […] Next, the DDCt value is calculated between the “control” group and the “experimental” group. Lastly, the fold change is calculated using 2^(−DDCt). Biological replicates were grouped to allow calculating the fold change values. Unpaired T-Test was used to calculate statistical significance. Asterisks in the graph indicate that the P-value was <0.05.

[4] = Dissolution of test peptides for in vitro kinase assay; type: physicochemical; conditions: 1 mM in 50 mM HEPES pH7
Description: TFEB-S-142: aa. o 117-166 of Seq Id No. 2: […] and TFEB-A-142: Seq Id No. 4, corresponding to aa. of 117-166 of Seq Id No. 2 where Ser 142 was substituted with Ala (bold): […] were synthesized by […] corp. The test peptides TFEB-A-142 and TFEB-S-142 were made up to 1 mM in 50 mM HEPES pH7. […] The kinase assay was performed at room temperature for 40 minutes at 200 μM ATP and 100 μM of each peptide, using Millipore's standard radiometric assay. All protein kinases were used at their standard KinaseProfiler™ assay concentration. Following incubation, all assays were stopped by the addition of acid and an aliquot spotted onto P30 and Filtermat A to separate products. All tests were carried out in triplicate, and the usual substrate for each protein kinase included as a control. In Vivo Gene Delivery

[5] = tested on: TFEB S142; experiment: TFEB S142 phosphorylation with p-S142 phosphospecific antibody; type: cell-based, human; conditions: starved cells supplemented with normal media
Excerpt: The mouse anti-TFEB monoclonal antibody was purchased from My Biosource catalogue No. MBS120432. To generate anti-pS142 specific antibodies, rabbits were immunized with the following peptide coupled to KLH: AGNSAPN{pSer}[…]. Following the fourth immunization, rabbits were sacrificed and the serum was collected. Non-phosphospecific antibodies were depleted from the serum by circulation through a column containing the non-phosphorylated antigene. The phosphospecific antibodies were subsequently purified using a column containing the phosphorylated peptide.
Cells were lysed with M-PER buffer (Thermo) containing protease and phosphatase inhibitors (Sigma); nuclear/cytosolic fractions were isolated as above described. Proteins were separated by SDS-PAGE (Invitrogen; reduced NuPAGE 4-12% Bis-tris Gel, MES SDS buffer). If needed, the gel was stained using 20 ml Imperial Protein Stain (Thermo Fisher) at room temperature for 1 h and de-stained with water. Immunoblotting analysis was performed by transferring the protein onto a nitrocellulose membrane with an I-Blot (Invitrogen). […]

[6] = tested on: mTORC1; experiment: mTORC1 activity by level of p-P70S6K (immunoblotting); type: cell-based, human; conditions: HeLa cells treated overnight
Description: Cells were lysed with M-PER buffer (Thermo) containing protease and phosphatase inhibitors (Sigma); nuclear/cytosolic fractions were isolated as above described. […] Immunoblotting analysis was performed by transferring the protein onto a nitrocellulose membrane with an I-Blot (Invitrogen). The membrane was blocked with 5% non-fat milk in TBS-T buffer (TBS containing 0.05% Tween-20) and incubated with primary antibodies anti-FLAG and anti-TUBULIN (Sigma; 1:2000), anti-H3 (Cell Signaling; 1:10 000) at room temperature for 2 h whereas the following antibodies were incubated ON in 5% BSA: anti-TFEB (My Biosource; 1:1000), anti-P TFEB (1:1000) ERK1/2, p-ERK1/2, p-P70S6K, P70S6K (Cell Signaling; 1:1000). The membrane was washed three times with TBS-T buffer and incubated with alkaline phosphatase-conjugated IgG (Promega; 0.2 mg/ml) at room temperature for 1 h. The membrane was washed three times with TBS buffer and the expressed proteins were visualized by adding 10 ml Western Blue Stabilized Substrate (Promega).

[7] = tested on: long-lived proteins; experiment: Degradation of long-lived proteins; type: cell-based; conditions: autophagy inhibitor added
Description: Sub-confluent cells were incubated with L-U^14C-serine for 20 h and chased for 1 h with cold media to degrade short-lived proteins. Subsequently cells were incubated with either normal media or starvation media (eventually in the presence of 3-MA) for 4 h. The rate of long-lived protein degradation was calculated from the ratio of soluble radioactivity in the media to that insoluble in the acid-precipitable cell pellet.

Molecule: Nc1ccc(-c2ccc3ncc4ccc(=O)n(-c5cccc(C(F)(F)F)c5)c4c3c2)cn1 [Torin 2]
- mTOR inhibition [1]: completely inhibiting mTOR activity

Molecule: CCN(CC)CCCC(C)Nc1ccnc2cc(Cl)ccc12 (stereo not drawn) [chloroquine]
- nuclear translocation of exogenously expressed TFEB [2]: induced nuclear translocation
- upregulation / transcriptional response of TFEB target genes [3]: significantly blunted
- expression of TFEB target genes ([3]; hepatocytes from control mice): upregulated
- levels of P-ERK [3]: unaffected
- mTOR as measured by the level of p-S6K [3]: inhibited mTOR

Molecule: insulin: growth factor supplemented to EBSS media
- TFEB nuclear translocation compared to starved media alone [2]: significant inhibition

Molecule: PPPAASPGVRAGHVLSSSAGNSAPNAPMAMLHIGSNPERELDDVIDNIMR [TFEB-A-142]
- dissolution [4]: no issue with dissolution

Molecule: N#CC(=C(/N)Sc1ccccc1N)/C(C#N)=C(\N)Sc1ccccc1N [U0126]
- TFEB molecular weight shift induced by nutrients [2]: only a partial TFEB molecular weight shift
- TFEB nuclear localization [2]: resulted in TFEB nuclear localization, at level similar to starvation

Molecule: CCC(=O)N1CCN(c2ccc(-n3c(=O)ccc4cnc5ccc(-c6cnc7ccccc7c6)cc5c43)cc2C(F)(F)F)CC1 [Torin 1]
- nutrient-induced S142 phosphorylation [5]: clearly blunted
- TFEB subcellular localization ([2]; starved cells stimulated with amino-acid rich medium, Torin 1 250 nM, Rapamycin 2.5 μM): massive TFEB nuclear accumulation
- upregulation / transcriptional response of TFEB target genes [3]: significantly reduced
- levels of P-ERK [3]: unaffected
- mTOR as measured by the level of p-S6K [3]: inhibited mTOR

Molecule: PPPAASPGVRAGHVLSSSAGNSAPNSPMAMLHIGSNPERELDDVIDNIMR (listed as Homo sapiens) [TFEB-S-142, peptide aa]
- dissolution [4]: no issue with dissolution

Molecule: LIF: cytokine supplemented to EBSS media
- TFEB nuclear translocation compared to starved media alone [2]: Almost no effect

Molecule: EGF: growth factor supplemented to EBSS media (NSDSECPLSHDGYCLHDGVCMYIEALDKYACNCVVGYIGERCQYRDLKWWELR; UniProt P01133 971-1023, looked up)
- TFEB nuclear translocation compared to starved media alone [2]: significant inhibition

Molecule: CC/C=C\C=C/C(=O)N/C=C/C[C@H]1C[C@@H](O)[C@@H](C)C/C=C/Cc2cccc(O)c2C(=O)O1 [Salicylihalamide A]
- mTORC1 activity as measured by level of p-P70S6K [6]: inhibited
- nuclear translocation of exogenously expressed TFEB [2]: induced nuclear translocation

Molecule: Cn1cnc(N)c2ncnc1-2 [3-methyl adenine, reference compound]
- TFEB-induced enhancement of long-lived protein degradation [7]: abolished

Source: patent US9193755B1, “TFEB variants and uses thereof” (Fondazione Telethon, priority 2011, dated 2015)
